As a reminder, the IC50 is the concentration that inhibits the measured activity by half.

Structures can show the parent of a compound that is named as a salt. Bounds are passed on as bounds.

In one experiment the target is T1, IKKε (Homo sapiens, UniProt Q14164).
T1 sequence (Q14164 1-716): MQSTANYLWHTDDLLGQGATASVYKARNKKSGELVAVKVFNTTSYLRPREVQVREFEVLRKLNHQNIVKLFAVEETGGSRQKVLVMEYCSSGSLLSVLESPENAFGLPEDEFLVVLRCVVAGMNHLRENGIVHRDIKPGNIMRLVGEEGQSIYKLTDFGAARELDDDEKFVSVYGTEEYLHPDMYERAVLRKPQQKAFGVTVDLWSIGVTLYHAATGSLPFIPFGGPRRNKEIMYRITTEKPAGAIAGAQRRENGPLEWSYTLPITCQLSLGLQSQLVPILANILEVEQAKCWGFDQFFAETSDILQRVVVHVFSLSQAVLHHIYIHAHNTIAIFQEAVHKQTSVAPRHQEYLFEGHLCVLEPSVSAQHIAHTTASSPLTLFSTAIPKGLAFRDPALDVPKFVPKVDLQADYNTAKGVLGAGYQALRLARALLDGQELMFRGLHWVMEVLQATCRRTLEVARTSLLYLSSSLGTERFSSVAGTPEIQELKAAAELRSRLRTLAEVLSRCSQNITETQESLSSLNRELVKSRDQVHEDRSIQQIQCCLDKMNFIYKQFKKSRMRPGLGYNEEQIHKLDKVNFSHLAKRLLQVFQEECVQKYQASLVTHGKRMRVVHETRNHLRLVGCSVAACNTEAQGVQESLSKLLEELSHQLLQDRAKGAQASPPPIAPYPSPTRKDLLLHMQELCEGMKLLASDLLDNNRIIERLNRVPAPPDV
The experiment in a line: IKKe Biochemical Assay. As to conditions: read-out: IKKε IC50. The essentials:
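Activity was measured as mobility-shift separation of phosphorylated from unphosphorylated substrate on a LabChip EZ Reader. Compound was titrated from 30 uM final in 10 points, 1:4 steps, with 1% DMSO, and enzyme plus substrate reacted 90 min at 25° C before stop buffer. Control wells held 10 uM staurosporine.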

Another experiment deals with T2, TBK1 (Homo sapiens, UniProt Q9UHD2).
T2 sequence (Q9UHD2 1-729): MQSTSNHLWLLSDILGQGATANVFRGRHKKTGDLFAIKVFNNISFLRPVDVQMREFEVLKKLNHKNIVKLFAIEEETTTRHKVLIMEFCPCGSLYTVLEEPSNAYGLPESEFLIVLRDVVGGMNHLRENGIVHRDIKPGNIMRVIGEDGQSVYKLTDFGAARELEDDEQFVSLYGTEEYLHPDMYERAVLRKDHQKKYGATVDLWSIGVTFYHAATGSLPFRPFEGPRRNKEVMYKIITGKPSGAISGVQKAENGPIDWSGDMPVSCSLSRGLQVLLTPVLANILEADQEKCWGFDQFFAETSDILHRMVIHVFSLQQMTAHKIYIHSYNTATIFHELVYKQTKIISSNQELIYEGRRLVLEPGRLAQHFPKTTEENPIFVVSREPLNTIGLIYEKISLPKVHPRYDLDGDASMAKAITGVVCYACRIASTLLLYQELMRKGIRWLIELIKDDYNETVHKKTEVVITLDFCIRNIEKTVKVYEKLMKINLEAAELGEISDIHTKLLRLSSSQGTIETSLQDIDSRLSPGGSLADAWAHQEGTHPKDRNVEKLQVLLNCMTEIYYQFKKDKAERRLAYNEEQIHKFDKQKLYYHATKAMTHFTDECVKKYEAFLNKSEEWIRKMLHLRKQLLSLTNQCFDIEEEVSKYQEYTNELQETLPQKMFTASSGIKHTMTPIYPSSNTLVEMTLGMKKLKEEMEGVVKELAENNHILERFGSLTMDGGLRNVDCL
The experiment is described as follows: TBK Biochemical Assay. As to conditions: read-out: TBK1 IC50. The essentials: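 Caliper LabChip mobility-shift readout of substrate and product after 90 min of TBK1 reaction at 25° C and stop-buffer addition. Compounds tested in 1:4 serial dilution over 10 points from 30 uM final at 1% DMSO; staurosporine 10 uM final defines full inhibition.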

Experiment [1] relates to phosphorylation of the IRF-3 protein in MDA-MB-468 cells. The experiment is described as follows: pIRF3 immunocytochemistry cell based assay. Conditions: Homo sapiens; MDA-MB-468 cells, Poly(I:C) stimulation; read-out: pIRF3 IC50. The method in brief:
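After 2 h stimulation with Poly(I:C) (10 ug/ml), following 1 h compound pre-treatment (10-point, 3-fold dilution, top 10 uM), MDA-MB-468 cells were fixed and stained with anti-pIRF3 antibody. pIRF3 fluorescence was normalized to PI staining or cell count on an Acumen cytometer. IC50 curves were derived from this.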

Regarding `CN(C)C(=O)c1cccc(-c2cc3nccc(-c4ccc(OC5CCOCC5)c(C#N)c4)c3o2)c1` [Compound 123], the IC50 at IKKε is < 100 nM; at TBK1, < 100 nM; in experiment [1] it was 1000 to 5000 nM.
In the case of `COc1cc(C(=O)N(C)C)ccc1-c1cc2nccc(-c3ccc(N4CC[C@@H](F)C4)c(C#N)c3)c2o1` [Compound 57, 4-{7-[3-Cyano-4-((R)-3-fluoro-pyrrolidin-1-yl)-phenyl]-furo[3,2-b]pyridin-2-yl}-3-methoxy-N,N-dimethyl-benzamide], the concentration for half-maximal inhibition (IC50) is < 100 nM on IKKε, < 100 nM at TBK1 and 100 to 1000 nM in experiment [1].
Regarding `CN(C)C(=O)c1ccc(-c2cc3nccc(-c4ccc(OC5CCOC(C)(C)C5)c(C#N)c4)c3o2)cc1` (stereo not drawn) [Compound 170, 4-{7-[3-Cyano-4-(2,2-dimethyl-tetrahydro-pyran-4-yloxy)-phenyl]-furo[3,2-b]pyridin-2-yl}-N,N-dimethyl-benzamide], the values for the IC50 (on IKKε; on TBK1; in experiment [1]) were 100 to 1000 nM, 100 to 1000 nM and 1000 to 5000 nM, respectively.
For the compound `COc1cc(C(=O)N(C)C)ccc1-c1cc2nccc(-c3ccc(OC4CN(C(C)C)C4)c(C#N)c3)c2o1` [Compound 485, 4-{7-[3-Cyano-4-(1-isopropyl-azetidin-3-yloxy)-phenyl]-furo[3,2-b]pyridin-2-yl}-3-methoxy-N,N-dimethyl-benzamide], the IC50 (at IKKε; on TBK1; in experiment [1]) was 1000 to 5000 nM throughout.
On to `COc1cc(C(=O)N2CC(N3CCCC3)C2)ccc1-c1cc2nccc(-c3ccc(OC4CCOCC4)c(C#N)c3)c2o1` [Compound 20, 5-{2-[2-Methoxy-4-(3-pyrrolidin-1-yl-azetidine-1-carbonyl)-phenyl]-furo[3,2-b]pyridin-7-yl}-2-(tetrahydro-pyran-4-yloxy)-benzonitrile], for which the half-maximal inhibitory concentration (IC50) (on IKKε; at TBK1; in experiment [1]) was < 100 nM throughout.
Turning to `COc1cc(C(=O)NC2CN3CCC2CC3)cnc1-c1cc2nccc(-c3ccc(N4CC[C@H](F)C4)c(C#N)c3)c2o1` (stereo partly drawn) [Compound 439, N—(S)-1-Aza-bicyclo[2.20.2]oct-3-yl-6-{7-[3-cyano-4-((S)-3-fluoro-pyrrolidin-1-yl)-phenyl]-furo[3,2-b]pyridin-2-yl}-5-methoxy-nicotinamide], the IC50 at IKKε was < 100 nM; on TBK1, < 100 nM; in experiment [1], 100 to 1000 nM.
With `N#Cc1cc(-c2ccnc3cc(-c4ccc(C(=O)NC5CN6CCC5CC6)cc4)oc23)ccc1OC1CCOCC1` (stereo not drawn) [Compound 145, N-(1-Aza-bicyclo[2.2.2]oct-3-yl)-4-{7-[3-cyano-4-(tetrahydro-pyran-4-yloxy)-phenyl]-furo[3,2-b]pyridin-2-yl}-benzamide], the IC50 on IKKε is < 100 nM; on TBK1 it was < 100 nM; in experiment [1], 100 to 1000 nM.
Consider `COc1cc(C(=O)NC2CCC(O)C2)ccc1-c1cc2nccc(-c3ccc(OC4CCOCC4)c(C#N)c3)c2o1` (stereo not drawn) [Compound 68, 4-{7-[3-Cyano-4-(tetrahydro-pyran-4-yloxy)-phenyl]-furo[3,2-b]pyridin-2-yl}-N-(3-hydroxy-cyclopentyl)-3-methoxy-benzamide], for which the IC50 at IKKε is < 100 nM; at TBK1 it was < 100 nM; in experiment [1] it was 100 to 1000 nM.
Take `COc1cc(C(=O)N(C)CCO)ccc1-c1cc2ncc(Cl)c(-c3ccc(OC4CCOCC4)c(C#N)c3)c2o1` [Compound 304, 4-[6-chloro-7-[3-cyano-4-(oxan-4-yloxy)phenyl]furo[3,2-b]pyridin-2-yl]-N-(2-hydroxyethyl)-3-methoxy-N-methylbenzamide]: the concentration for half-maximal inhibition (IC50) lay in the range of 100 to 1000 nM on IKKε, 100 to 1000 nM on TBK1 and 1000 to 5000 nM in experiment [1].
Consider `COc1cc(C(=O)N(C)CCS(C)(=O)=O)ccc1-c1cc2nccc(-c3ccc(OC4CCOCC4)c(C#N)c3)c2o1` [Compound 483, 4-{7-[3-Cyano-4-(tetrahydro-pyran-4-yloxy)-phenyl]-furo[3,2-b]pyridin-2-yl}-N-(2-methanesulfonyl-ethyl)-3-methoxy-N-methyl-benzamide], for which the concentration for half-maximal inhibition (IC50) (on IKKε; on TBK1; in experiment [1]) was < 100 nM each time.
Consider `COc1cc(C(=O)NC2(C#N)CCN(C)C2)ccc1-c1cc2nccc(-c3ccc(OC4CCOCC4)c(C#N)c3)c2o1` (stereo not drawn) [Compound 349, N-(3-cyano-1-methylpyrrolidin-3-yl)-4-[7-[3-cyano-4-(oxan-4-yloxy)phenyl]furo[3,2-b]pyridin-2-yl]-3-methoxybenzamide], for which the IC50 is < 100 nM at IKKε, < 100 nM on TBK1 and 100 to 1000 nM in experiment [1].
With `COc1cc(C(=O)N2CC3CCC2CO3)ncc1-c1cc2nccc(-c3ccc(OC4CCOCC4)c(C#N)c3)c2o1` (stereo not drawn) [Compound 413, 5-[2-[4-methoxy-6-([2-oxa-5-azabicyclo[2.2.2]octan-5-yl]carbonyl)pyridin-3-yl]furo[3,2-b]pyridin-7-yl]-2-(oxan-4-yloxy)benzonitrile hydrochloride], the IC50 was < 100 nM at IKKε, < 100 nM at TBK1 and 100 to 1000 nM in experiment [1].
For `COc1cc(C(=O)N(C)C)cnc1-c1cc2nccc(-c3ccc(OC4CCNC4)c(C#N)c3)c2o1` (stereo not drawn) [Compound 487, 6-{7-[3-Cyano-4-(pyrrolidin-3-yloxy)-phenyl]-furo[3,2-b]pyridin-2-yl}-5-methoxy-N,N-dimethyl-nicotinamide], the IC50 (on IKKε; on TBK1; in experiment [1]) was 100 to 1000 nM throughout.
For the compound `COc1cc(C(=O)N(C)C)ccc1-c1cc2nccc(-c3ccc(OC4CCOC[C@@H]4F)c(C#N)c3)c2o1` (mixture of isomers) [Compound 42, 4-{7-[3-Cyano-4-((S)-3-fluoro-tetrahydro-pyran-4-yloxy)-phenyl]-furo[3,2-b]pyridin-2-yl}-3-methoxy-N,N-dimethyl-benzamide], the IC50 (at IKKε; at TBK1; in experiment [1]) was < 100 nM in each case.
`COc1cc(C(=O)N2CC[C@H](N(C)C)C2)ccc1-c1cc2nccc(-c3ccc(N4CC[C@H](F)C4)c(C#N)c3)c2o1` [Compound 47, 5-{2-[4-((S)-3-Dimethylamino-pyrrolidine-1-carbonyl)-2-methoxy-phenyl]-furo[3,2-b]pyridin-7-yl}-2-((S)-3-fluoro-pyrrolidin-1-yl)-benzonitrile]: the IC50 on IKKε was < 100 nM; on TBK1 it was < 100 nM; in experiment [1] it was 100 to 1000 nM.
In the case of `COc1cc(C(=O)N2CC3CN(C)CC3C2)ccc1-c1cc2nccc(-c3ccc(NC4CCOCC4)c(C#N)c3)c2o1` (stereo not drawn) [Compound 73, 5-{2-[2-Methoxy-4-(5-methyl-hexahydro-pyrrolo[3,4-c]pyrrole-2-carbonyl)-phenyl]-furo[3,2-b]pyridin-7-yl}-2-(tetrahydro-pyran-4-ylamino)-benzonitrile], the IC50 (on IKKε; at TBK1; in experiment [1]) was < 100 nM in each case.
Consider `COc1cc(C(=O)N(C)C)ncc1-c1cc2nccc(-c3ccc(NC4CCN(C)C4)c(C#N)c3)c2o1` (stereo not drawn) [Compound 434, 5-(7-[3-cyano-4-[(1-methylpyrrolidin-3-yl)amino]phenyl]furo[3,2-b]pyridin-2-yl)-4-methoxy-N,N-dimethylpyridine-2-carboxamide], for which the half-inhibitory concentration (IC50) (at IKKε; on TBK1; in experiment [1]) was < 100 nM each time.

These data come from patent US10428080B2, “TBK/IKK inhibitor compounds and uses thereof” (Merck Patent GmbH, priority 2015, dated 2019).
